Numbers after ± are expanded uncertainties.
Assays:
[1] = 101 kPa, Liquid, Capillary tube (Ostwald / Ubbelohde) method
[2] = xn = mol fraction of the nth substance listed; conditions: 101 kPa, Liquid, Capillary tube (Ostwald / Ubbelohde) method

Cc1ccccc1C [1,2-dimethylbenzene]
[1]
Conditions	viscosity [mPa·s]
303.15 K	0.71 ± 0.018
308.15 K	0.666 ± 0.017
313.15 K	0.628 ± 0.017
318.15 K	0.591 ± 0.017
323.15 K	0.56 ± 0.017

Cc1ccccc1C [1,2-dimethylbenzene] + CO
viscosity [mPa·s], [2]
Conditions	x2 = 0	x2 = 0.1007	x2 = 0.2013	x2 = 0.2961	x2 = 0.403	x2 = 0.5003	x2 = 0.601	x2 = 0.7025	x2 = 0.8006	x2 = 0.9013
303.15 K	0.71 ± 0.018	0.684 ± 0.017	0.674 ± 0.017	0.671 ± 0.017	0.666 ± 0.017	0.663 ± 0.017	0.655 ± 0.017	0.638 ± 0.017	0.61 ± 0.017	0.567 ± 0.017
308.15 K	0.666 ± 0.017	0.641 ± 0.017	0.631 ± 0.017	0.626 ± 0.017	0.621 ± 0.017	0.617 ± 0.017	0.607 ± 0.017	0.595 ± 0.017	0.567 ± 0.017	0.53 ± 0.017
313.15 K	0.628 ± 0.017	0.603 ± 0.017	0.591 ± 0.017	0.587 ± 0.017	0.582 ± 0.017	0.577 ± 0.017	0.569 ± 0.017	0.554 ± 0.017	0.531 ± 0.017	0.495 ± 0.017
318.15 K	0.591 ± 0.017	0.566 ± 0.017	0.555 ± 0.017	0.55 ± 0.017	0.543 ± 0.017	0.538 ± 0.017	0.531 ± 0.017	0.516 ± 0.017	0.494 ± 0.017	0.462 ± 0.017
323.15 K	0.56 ± 0.017	0.535 ± 0.017	0.523 ± 0.017	0.517 ± 0.017	0.511 ± 0.017	0.506 ± 0.017	0.496 ± 0.017	0.484 ± 0.017	0.462 ± 0.017	0.434 ± 0.017

Cc1cccc(C)c1 [1,3-dimethylbenzene]
[1]
Conditions	viscosity [mPa·s]
303.15 K	0.554 ± 0.017
308.15 K	0.524 ± 0.017
313.15 K	0.498 ± 0.017
318.15 K	0.472 ± 0.017
323.15 K	0.452 ± 0.017

Cc1cccc(C)c1 [1,3-dimethylbenzene] + CO
viscosity [mPa·s], [2]
Conditions	x2 = 0	x2 = 0.1008	x2 = 0.2003	x2 = 0.2999	x2 = 0.4	x2 = 0.4997	x2 = 0.6003	x2 = 0.7001	x2 = 0.8001	x2 = 0.9012
303.15 K	0.554 ± 0.017	0.539 ± 0.017	0.542 ± 0.017	0.548 ± 0.017	0.553 ± 0.017	0.56 ± 0.017	0.566 ± 0.017	0.57 ± 0.017	0.565 ± 0.017	0.546 ± 0.017
308.15 K	0.524 ± 0.017	0.51 ± 0.017	0.51 ± 0.017	0.514 ± 0.017	0.519 ± 0.017	0.526 ± 0.017	0.53 ± 0.017	0.532 ± 0.017	0.526 ± 0.017	0.509 ± 0.017
313.15 K	0.498 ± 0.017	0.483 ± 0.017	0.483 ± 0.017	0.485 ± 0.017	0.488 ± 0.017	0.493 ± 0.017	0.496 ± 0.017	0.497 ± 0.017	0.492 ± 0.017	0.477 ± 0.017
318.15 K	0.472 ± 0.017	0.456 ± 0.017	0.456 ± 0.017	0.457 ± 0.017	0.46 ± 0.017	0.462 ± 0.017	0.465 ± 0.017	0.466 ± 0.017	0.46 ± 0.017	0.445 ± 0.017
323.15 K	0.452 ± 0.017	0.435 ± 0.017	0.433 ± 0.017	0.433 ± 0.017	0.434 ± 0.017	0.437 ± 0.017	0.437 ± 0.017	0.437 ± 0.017	0.432 ± 0.017	0.419 ± 0.017

Cc1ccc(C)cc1 [1,4-dimethylbenzene]
[1]
Conditions	viscosity [mPa·s]
303.15 K	0.574 ± 0.017
308.15 K	0.542 ± 0.017
313.15 K	0.514 ± 0.017
318.15 K	0.486 ± 0.017
323.15 K	0.461 ± 0.017

Cc1ccc(C)cc1 [1,4-dimethylbenzene] + CO
viscosity [mPa·s], [2]
Conditions	x2 = 0	x2 = 0.1001	x2 = 0.1998	x2 = 0.3015	x2 = 0.4005	x2 = 0.5	x2 = 0.5999	x2 = 0.7005	x2 = 0.8	x2 = 0.8984
303.15 K	0.574 ± 0.017	0.559 ± 0.017	0.556 ± 0.017	0.563 ± 0.017	0.567 ± 0.017	0.573 ± 0.017	0.576 ± 0.017	0.577 ± 0.017	0.568 ± 0.017	0.549 ± 0.017
308.15 K	0.542 ± 0.017	0.527 ± 0.017	0.524 ± 0.017	0.527 ± 0.017	0.529 ± 0.017	0.533 ± 0.017	0.536 ± 0.017	0.536 ± 0.017	0.529 ± 0.017	0.512 ± 0.017
313.15 K	0.514 ± 0.017	0.498 ± 0.017	0.494 ± 0.017	0.496 ± 0.017	0.498 ± 0.017	0.501 ± 0.017	0.504 ± 0.017	0.502 ± 0.017	0.495 ± 0.017	0.479 ± 0.017
318.15 K	0.486 ± 0.017	0.469 ± 0.017	0.465 ± 0.017	0.466 ± 0.017	0.467 ± 0.017	0.469 ± 0.017	0.469 ± 0.017	0.469 ± 0.017	0.462 ± 0.017	0.447 ± 0.017
323.15 K	0.461 ± 0.017	0.445 ± 0.017	0.439 ± 0.017	0.44 ± 0.017	0.44 ± 0.017	0.443 ± 0.017	0.443 ± 0.017	0.441 ± 0.017	0.434 ± 0.017	0.42 ± 0.017

CO [methanol]
[1]
Conditions	viscosity [mPa·s]
303.15 K	0.513 ± 0.017
308.15 K	0.48 ± 0.017
313.15 K	0.45 ± 0.017
318.15 K	0.422 ± 0.017
323.15 K	0.397 ± 0.017

CO [methanol] + Cc1ccc(C)cc1
[2], x1 = 1
Conditions	viscosity [mPa·s]
303.15 K	0.513 ± 0.017
308.15 K	0.48 ± 0.017
313.15 K	0.45 ± 0.017
318.15 K	0.422 ± 0.017
323.15 K	0.397 ± 0.017

CO [methanol] + Cc1cccc(C)c1
[2], x1 = 1
Conditions	viscosity [mPa·s]
303.15 K	0.513 ± 0.017
308.15 K	0.48 ± 0.017
313.15 K	0.45 ± 0.017
318.15 K	0.422 ± 0.017
323.15 K	0.397 ± 0.017

CO [methanol] + Cc1ccccc1C
[2], x1 = 1
Conditions	viscosity [mPa·s]
303.15 K	0.513 ± 0.017
308.15 K	0.48 ± 0.017
313.15 K	0.45 ± 0.017
318.15 K	0.422 ± 0.017
323.15 K	0.397 ± 0.017

From the NIST ThermoML archive (doi:10.1021/acs.jced.7b00971)
